Data published in ChEMBL document CHEMBL5046233, “Nitroxoline and its derivatives are potent inhibitors of metallo-β-lactamases” (Eur J Med Chem, 2022).
Values after ≈ are worked out from the molar mass of the structure shown.

How the values were obtained:
Pseudomonas aeruginosa [1] = assay: Potentiation of imipenem-induced antibacterial activity against Pseudomonas aeruginosa T2325 expressing IMP-1 assessed as fold change in imipenem MIC at 32 mg/L by CLSI protocol based broth microdilution assay; format: functional
[2] = Inhibition of recombinant NDM-1 (unknown origin) using fluorocillin as substrate at 30 uM incubated for 30 mins by fluorescence based assay; conditions: Bacteria
[3] = Inhibition of recombinant NDM-1 (unknown origin) using fluorocillin as substrate at 10 uM incubated for 30 mins by fluorescence based assay; conditions: Bacteria
[4] = Inhibition of recombinant NDM-1 (unknown origin) using fluorocillin as substrate at 3 uM incubated for 30 mins by fluorescence based assay; conditions: Bacteria
Bacteria [5] = assay: Inhibition of recombinant VIM-1 (unknown origin) using fluorocillin as substrate at 10 uM incubated for 30 mins by fluorescence based assay
Bacteria [6] = assay: Inhibition of recombinant IMP-1 (unknown origin) using fluorocillin as substrate at 30 uM incubated for 30 mins by fluorescence based assay
Escherichia coli [7] = assay: Potentiation of imipenem-induced antibacterial activity against Escherichia coli T2359 expressing NDM-1 assessed as fold change in imipenem MIC at 32 mg/L by CLSI protocol based broth microdilution assay; format: functional
Klebsiella pneumoniae [8] = assay: Potentiation of ceftazidime-induced antibacterial activity against Klebsiella pneumoniae clinical isolate T2301 expressing NDM-1 assessed as ceftazidime MIC at 32 mg/L by CLSI protocol based broth microdilution assay; format: functional
Klebsiella pneumoniae [9] = assay: Potentiation of ciprofloxacin-induced antibacterial activity against Klebsiella pneumoniae clinical isolate T2301 expressing NDM-1 assessed as ciprofloxacin MIC at 32 mg/L by CLSI protocol based broth microdilution assay; format: functional
Escherichia coli [10] = assay: Potentiation of gentamicin-induced antibacterial activity against Escherichia coli clinical isolate T2228 expressing VIM-1 assessed as gentamicin MIC at 32 mg/L by CLSI protocol based broth microdilution assay; format: functional
Serratia marcescens [11] = assay: Potentiation of imipenem-induced antibacterial activity against Serratia marcescens T2352 expressing NDM-1 assessed as fold change in imipenem MIC at 32 mg/L by CLSI protocol based broth microdilution assay; format: functional
Enterobacter cloacae [12] = assay: Potentiation of imipenem-induced antibacterial activity against Enterobacter cloacae T2311 expressing NDM-1 assessed as fold change in imipenem MIC at 32 mg/L by CLSI protocol based broth microdilution assay; format: functional
Escherichia coli [13] = assay: Potentiation of imipenem-induced antibacterial activity against Escherichia coli T2351 expressing NDM-5 assessed as fold change in imipenem MIC at 32 mg/L by CLSI protocol based broth microdilution assay; format: functional
Enterobacter cloacae [14] = assay: Potentiation of imipenem-induced antibacterial activity against Enterobacter cloacae T2353 expressing VIM-1 assessed as fold change in imipenem MIC at 32 mg/L by CLSI protocol based broth microdilution assay; format: functional
Klebsiella pneumoniae [15] = assay: Potentiation of imipenem-induced antibacterial activity against Klebsiella pneumoniae T2216 expressing VIM-1 assessed as fold change in imipenem MIC at 32 mg/L by CLSI protocol based broth microdilution assay; format: functional
Pseudomonas aeruginosa [16] = assay: Potentiation of imipenem-induced antibacterial activity against Pseudomonas aeruginosa T2282 expressing VIM-2 assessed as fold change in imipenem MIC at 32 mg/L by CLSI protocol based broth microdilution assay; format: functional
Pseudomonas aeruginosa [17] = assay: Potentiation of imipenem-induced antibacterial activity against Pseudomonas aeruginosa T2229 expressing SPM-1 assessed as fold change in imipenem MIC at 32 mg/L by CLSI protocol based broth microdilution assay; format: functional
Klebsiella pneumoniae [18] = assay: Bactericidal activity against Klebsiella pneumoniae T2301 expressing NDM-1 assessed as killing rate at 0.5 X MIC measured after 24 hrs in presence of imipenem by time-kill assay relative to control; format: functional
[19] = Cytotoxicity against human HUVEC cells assessed as metabolic activity measured after 24 hrs by cell-titer blue assay; format: toxicity, cell-based
Escherichia coli [20] = assay: Potentiation of imipenem-induced antibacterial activity against Escherichia coli T2544 expressing VIM-1 assessed as imipenem MIC at 32 mg/L by CLSI protocol based broth microdilution assay; format: functional
Klebsiella pneumoniae [21] = assay: Potentiation of imipenem-induced antibacterial activity against Klebsiella pneumoniae clinical isolate T2301 expressing NDM-1 assessed as imipenem MIC at 32 mg/L by CLSI protocol based broth microdilution assay; format: functional
Escherichia coli [22] = assay: Synergistic antibacterial activity against Escherichia coli T2544 expressing VIM-1 assessed as fractional inhibitory concentration index in presence of imipenem by checkerboard assay; format: functional
Klebsiella pneumoniae [23] = assay: Synergistic antibacterial activity against Klebsiella pneumoniae clinical isolate T2301 expressing NDM-1 assessed as fractional inhibitory concentration index in presence of imipenem by checkerboard assay; format: functional
Serratia marcescens [24] = assay: Potentiation of imipenem-induced antibacterial activity against Serratia marcescens T2352 expressing NDM-1 assessed as imipenem MIC at 32 mg/L by CLSI protocol based broth microdilution assay; format: functional
Enterobacter cloacae [25] = assay: Potentiation of imipenem-induced antibacterial activity against Enterobacter cloacae T2311 expressing NDM-1 assessed as imipenem MIC at 32 mg/L by CLSI protocol based broth microdilution assay; format: functional
Escherichia coli [26] = assay: Potentiation of imipenem-induced antibacterial activity against Escherichia coli T2351 expressing NDM-5 assessed as imipenem MIC at 32 mg/L by CLSI protocol based broth microdilution assay; format: functional
Pseudomonas aeruginosa [27] = assay: Potentiation of imipenem-induced antibacterial activity against Pseudomonas aeruginosa T2325 expressing IMP-1 assessed as imipenem MIC at 32 mg/L by CLSI protocol based broth microdilution assay; format: functional
Pseudomonas aeruginosa [28] = assay: Potentiation of imipenem-induced antibacterial activity against Pseudomonas aeruginosa T1098 expressing IMP-7 assessed as imipenem MIC at 32 mg/L by CLSI protocol based broth microdilution assay; format: functional
Klebsiella pneumoniae [29] = assay: Potentiation of imipenem-induced antibacterial activity against Klebsiella pneumoniae T2216 expressing VIM-1 assessed as imipenem MIC at 32 mg/L by CLSI protocol based broth microdilution assay; format: functional
Pseudomonas aeruginosa [30] = assay: Potentiation of imipenem-induced antibacterial activity against Pseudomonas aeruginosa T2282 expressing VIM-2 assessed as imipenem MIC at 32 mg/L by CLSI protocol based broth microdilution assay; format: functional
Pseudomonas aeruginosa [31] = assay: Potentiation of imipenem-induced antibacterial activity against Pseudomonas aeruginosa T2283 expressing VIM-2 assessed as imipenem MIC at 32 mg/L by CLSI protocol based broth microdilution assay; format: functional
Enterobacter cloacae [32] = assay: Potentiation of imipenem-induced antibacterial activity against Enterobacter cloacae T2218 expressing GIM-1 assessed as imipenem MIC at 32 mg/L by CLSI protocol based broth microdilution assay; format: functional
Escherichia coli [33] = assay: Potentiation of imipenem-induced antibacterial activity against Escherichia coli T2435 expressing KPC-2 assessed as imipenem MIC at 32 mg/L by CLSI protocol based broth microdilution assay; format: functional
Citrobacter freundii = assay: Potentiation of imipenem-induced antibacterial activity against Citrobacter freundii T2431 expressing KPC-3 assessed as imipenem MIC at 32 mg/L by CLSI protocol based broth microdilution assay; format: functional
Escherichia coli [34] = assay: Potentiation of imipenem-induced antibacterial activity against Escherichia coli T2433 expressing OXA-48 assessed as imipenem MIC at 32 mg/L by CLSI protocol based broth microdilution assay; format: functional

N#CCN(Cc1ccccc1)Cc1cc([N+](=O)[O-])c2cccnc2c1O
fold change (FC) (Pseudomonas aeruginosa [1]): 32
inhibition [2]: 96%
inhibition [3]: 88%
inhibition [4]: 68%
inhibition (Bacteria [5]): 100%
inhibition (Bacteria [6]): 98%
fold change (FC) (Escherichia coli [7]): 256
MIC (Klebsiella pneumoniae [8]): 64 ng/mL
MIC (Klebsiella pneumoniae [9]): 128 ng/mL
MIC (Escherichia coli [10]): 2 ng/mL
fold change (FC) (Serratia marcescens [11]): 1024
fold change (FC) (Enterobacter cloacae [12]): 16
fold change (FC) (Escherichia coli [13]): 8
fold change (FC) (Enterobacter cloacae [14]): 8
fold change (FC) (Klebsiella pneumoniae [15]): 8
fold change (FC) (Pseudomonas aeruginosa [16]): 32
fold change (FC) (Pseudomonas aeruginosa [17]): 16
Activity (Klebsiella pneumoniae [18]): >99.9%
IC50 at 24 h [19]: 45000 ng/mL (≈ 129 µM)
MIC (Escherichia coli [20]): 0.5 ng/mL
MIC (Klebsiella pneumoniae [21]): 250 ng/mL
fractional inhibitory concentration index (FICI) (Escherichia coli [22]): 0.265
fractional inhibitory concentration index (FICI) (Klebsiella pneumoniae [23]): 0.265
MIC (Serratia marcescens [24]): 250 ng/mL
MIC (Enterobacter cloacae [25]): 0.5 ng/mL
MIC (Escherichia coli [26]): 1 ng/mL
MIC (Pseudomonas aeruginosa [27]): 1 ng/mL
MIC (Pseudomonas aeruginosa [28]): 16 ng/mL
MIC (Klebsiella pneumoniae [29]): 0.5 ng/mL
MIC (Pseudomonas aeruginosa [30]): 8 ng/mL
MIC (Pseudomonas aeruginosa [31]): 1 ng/mL
MIC (Enterobacter cloacae [32]): 0.5 ng/mL
MIC (Escherichia coli [33]): 4 ng/mL
MIC (Citrobacter freundii): 4 ng/mL
MIC (Escherichia coli [34]): 2 ng/mL
